For experiment [1], the target named is T1, ASIC1a (Rattus norvegicus, UniProt P55926).
T1 construct: expressed in transfected cells; host or cells: Xenopus laevis oocytes (cRNA injection)
T1 sequence (P55926 1-526): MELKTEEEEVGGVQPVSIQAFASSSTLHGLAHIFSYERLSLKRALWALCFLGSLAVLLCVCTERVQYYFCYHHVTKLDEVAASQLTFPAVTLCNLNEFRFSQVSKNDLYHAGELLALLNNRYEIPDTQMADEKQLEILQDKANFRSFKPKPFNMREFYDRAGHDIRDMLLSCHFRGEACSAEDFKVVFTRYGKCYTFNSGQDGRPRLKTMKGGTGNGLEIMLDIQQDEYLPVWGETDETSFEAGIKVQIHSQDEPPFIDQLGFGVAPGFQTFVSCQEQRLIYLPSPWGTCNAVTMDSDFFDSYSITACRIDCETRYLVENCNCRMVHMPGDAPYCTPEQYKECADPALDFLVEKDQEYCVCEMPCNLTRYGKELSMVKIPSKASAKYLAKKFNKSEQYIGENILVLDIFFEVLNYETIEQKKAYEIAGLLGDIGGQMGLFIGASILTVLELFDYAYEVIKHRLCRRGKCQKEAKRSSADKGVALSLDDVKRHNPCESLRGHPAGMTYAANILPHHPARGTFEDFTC
The experiment is described as follows: Competition of sevanol with FRRFa peptide on ASIC1a current (integral currents). Type of experiment: cell-based. The source says: It is known that RF-amide peptides produce a potentiating effect on ASIC1a by inhibiting the channel’s desensitization in the presence of protons (during acidic stimulation). […] Using molecular docking and site-directed mutagenesis, it has been shown that RF-amide peptides are most likely to bind to ASIC1a in the central vestibule of the chicken channel. […] The peptide worsened the effectiveness of the inhibitory action of sevanol on the channel by 1.5 times, and reduced the Hill coefficient (Figure 3). Thus, it can be assumed that the binding site of sevanol also lies in the region of the central vestibule.
Oocytes were harvested from female frogs anaesthetized with tricaine methane sulfonate (MS222) (0.17% solution), and the surgery was performed in an ice bath to avoid heavy bleeding. Defolliculated stage IV and V cells were injected with 2.5 and 10 ng cRNA, synthesized from PCi plasmids containing the rat ASIC1a and rat ASIC3 isoforms, respectively, using the Nanoliter 2000 microinjection system (World Precision Instruments, USA). The injected oocytes were kept for 2–3 days at 17 to 19 °C, and then for up to 5 days at 15 °C in a ND96 medium containing (in mM) 96 NaCl, 2 KCl, 1.8 CaCl2, 1 MgCl2, and 5 HEPES titrated to pH 7.4 with NaOH supplemented with gentamycin (50 μg/mL). Two-electrode voltage clamp recordings were performed at a holding potential of −50 mV using a GeneClamp 500 amplifier (Axon Instruments), and the data were filtered at 20 Hz and digitized at 100 Hz by an AD converter L780 (LCard, Russia). Microelectrodes were filled with 3 M KCl. The conditioning bath solution was ND96; the pH was adjusted to 7.4. The activating test solution was constructed based on the ND-96 buffer, in which 5 mM HEPES was replaced with 10 mM MES and pH was adjusted to 5.5. A computer-controlled valve system was used to achieve a rapid solution exchange in the recording chamber. A four parameter logistic equation was used for the curve-fitting analysis: F(x) = ((a1 − a2)/(1 + (x/x0)n)) + a2, where x is the concentration of the compound; F(x) is the response value at a given concentration of the compound; a1 is the control response value (fixed at 100%); x0 is the IC50 value; n is the Hill coefficient (slope factor); and a2 is the response value at the maximal inhibition (% of control).
Figure 3 Comparison of sevanol (s706) and the Phe-Arg-Arg-Phe-amide peptide (FRRFa) effects on the ASIC1a current. […] (B) Dose–response ASIC1a inhibitory curves for s706 alone (red line) and for s706 in the presence of 200 µM FRRFa (blue line), determined for integral currents. […]

For experiment [2], the system named is mice. Set-up: method as in PMID 30545037. The following applies: parenteral, 0.01–10 mg/kg; cited from earlier work.
Experiment [3] relates to human ASIC3 channels. The following applies: natural sevanol; read-out: IC50, inhibition of human ASIC3 channels; cited from earlier work.

Data on one compound can be found in paper PMC7466040, “Sevanol and Its Analogues: Chemical Synthesis, Biological Effects and Molecular Docking” (Pharmaceuticals, 2020).

One may read the IC50 as the concentration that inhibits the measured activity by half. Turning to `O=C(O)CC(C(=O)O)C(OC(=O)C1=Cc2cc(O)c(O)cc2C(c2ccc(O)c(O)c2)C1C(=O)OC(C(=O)O)C(CC(=O)O)C(=O)O)C(=O)O` (stereo not drawn) [sevanol], in experiment [1] (200 μM FRRFa vs alone), the “worsening of effectiveness of inhibitory action on ASIC1a by FRRFa peptide” value stood at 1.5 times. For the same compound, the half-inhibitory concentration (IC50) is 254 ± 31.2 µM in experiment [1] (integral currents, pH 5.5, 15 s pre-incubation, n = 5, read-out: IC50, ASIC1a inhibition, s706 alone) and 300 µM in experiment [3]. Moreover, the “nH, ASIC1a inhibition in the presence of FRRFa” value in experiment [1] (integral currents, pH 5.5, + 0.2 mM (200 µM) FRRFa, n = 5) is recorded as 2.4 ± 0.3. In addition, the “nH, ASIC1a inhibition, s706 alone” value in experiment [1] (integral currents, pH 5.5, n = 5) amounted to 3.1 ± 0.4. Besides, the “effect on acetic acid-induced writhing” value in experiment [2] is reported as “reduced the number of writhes”.
